{"source": "patent US20110028549A1", "about": "“USE OF A MONOTERPENE TO TREAT OR PREVENT STRESS” (AISA THERAPEUTICS, priority 2007, published 2011)", "key": {"[1]": {"test_system": "female rats Wistar HsdBrlHan", "test": "Functional Observation Battery (FOB) in rats after oral treatment", "assay_type": "in vivo, rat", "details": "for aggression (summary) / audible vocalization (summary) / body temperature (summary) / escapes after finger approach (summary) / interest for an object, curiosity (summary) / irritability (summary) / mictions (summary) / number of squares crossed (summary) / pain response (summary) / spontaneous activity (summary) / startle response (summary) / time before the rat falls (summary) / toe pinch reflex (summary) / wire manoeuvre (summary): FOB 1, 2 or 3 hours later, in comparison with the control; for capacity to tolerate stress: rats submitted to several stressful conditions, compared to vehicle-treated animals", "experimental": "1, 2 or 3 hours later, a Functional Observation Battery (FOB) was carried out.\nEighteen female rats Wistar HsdBrlHan EOPS (Ganat, France) with an average weight of 175-200 g are used. The 18 rats are weighed, marked and shared in 3 groups of 6 (n=6):\n“control” group=oral treatment with maize oil;\n“Perillic alcohol 10” group=oral treatment with perillic alcohol at 10 mg/kg;\nThe observations are carried out 60 minutes before treatment and 60, 120 and 180 minutes after the administration orally of the assayed products and comprise three observation phases:\na first direct observation phase during which the animal is not disturbed;\nan active observation phase during which the animal is manipulated;\na phase dedicated to the evaluation of the responses of the animals towards the reactivity assays.\nThe studied variables are the following:\nbehavioural effects: spontaneous locomotive activity, locomotive behaviour troubles, anxiety, touch response, irritability, aggression and freezing caused behaviours, somnolence, number of defecations, number of mictions, sensor-motor responses (toe pinch response and sound response);\nneurological effects: pupillary reflex, palpebral closure, pelvic elevation, tail position, limb and abdominal tones, reversal test, grip test, tremors and piloerection;\nphysiological effects: salivation, lacrimation, diarrhea, body temperature, respiratory rhythm.\nConsidering the Gaussian distribution or not of the data, parametric (P) or non-parametric (NP) tests are used: ANOVA (P) or Kruskal-Wallis test (NP) followed possibly by the Dunnett test (P) or the Mann-Whitney test (NP) to compare the treated groups with the control group. Statistics are carried out with the Statview 5 software (SAS, Institute Inc., USA)."}, "isoprenylation enzymes": {"test_system": "isoprenylation enzymes", "details": "cited from earlier work"}, "[2]": {"details": "cancer patients, doses which may have clinical activity; cited from earlier work"}, "[3]": {"details": "100 mg/kg limonene ingested in a custard, 4 h after ingestion, GC/MS; cited from earlier work"}, "[4]": {"details": "10 mg/kg orally, T+60 min, Mann-Whitney test"}, "[5]": {"details": "10 mg/kg orally, T+120 min, Mann-Whitney test"}, "[6]": {"details": "10 mg/kg orally, T+180 min, Mann-Whitney test"}, "[7]": {"details": "10 mg/kg orally, T+120 min, Mann-Whitney test vs. Control, n = 6"}, "[8]": {"details": "10 mg/kg orally, T+180 min, Mann-Whitney test vs. Control, n = 6"}}, "data": [{"compound": "C=C(C)[C@H]1CC=C(C)CC1", "note": "[Limonene, (4R)-1-methyl-4-isopropenylcyclohex-1-ene]", "values": [{"measurement": "duration of the effect", "setting": "[1]; 10 mg/kg orally", "result": "at least 3 hours"}, {"measurement": "overall effect indicated by the FOB results", "setting": "[1]; 10 mg/kg orally", "result": "an appeasing, relaxing effect, an anti-pain effect and an effect on temper giving a cheerful character"}, {"measurement": "time to response (onset)", "setting": "[1]; 10 mg/kg orally", "result": "less than one hour"}, {"measurement": "aggression (summary)", "setting": "[1]; 10 mg/kg orally", "result": "no aggression"}, {"measurement": "audible vocalization (summary)", "setting": "[1]; 10 mg/kg orally", "result": "very poor"}, {"measurement": "body temperature (summary)", "setting": "[1]; 10 mg/kg orally", "result": "a decrease"}, {"measurement": "escapes after finger approach (summary)", "setting": "[1]; 10 mg/kg orally", "result": "less quickly escapes"}, {"measurement": "interest for an object, curiosity (summary)", "setting": "[1]; 10 mg/kg orally", "result": "an increase"}, {"measurement": "irritability (summary)", "setting": "[1]; 10 mg/kg orally", "result": "no irritability"}, {"measurement": "mictions (summary)", "setting": "[1]; 10 mg/kg orally", "result": "an increase"}, {"measurement": "number of squares crossed (summary)", "setting": "[1]; 10 mg/kg orally", "result": "an increase"}, {"measurement": "pain response (summary)", "setting": "[1]; 10 mg/kg orally", "result": "a high decrease"}, {"measurement": "spontaneous activity (summary)", "setting": "[1]; 10 mg/kg orally", "result": "an increase"}, {"measurement": "startle response (summary)", "setting": "[1]; 10 mg/kg orally", "result": "an important decrease"}, {"measurement": "time before the rat falls (summary)", "setting": "[1]; 10 mg/kg orally", "result": "an increase"}, {"measurement": "toe pinch reflex (summary)", "setting": "[1]; 10 mg/kg orally", "result": "a decrease"}, {"measurement": "wire manoeuvre (summary)", "setting": "[1]; 10 mg/kg orally", "result": "an increase"}, {"measurement": "Audible vocalization vs control group", "setting": "[1]; [4]", "result": "significantly less vocalization"}, {"measurement": "Interest for an object vs control group", "setting": "[1]; [4]", "result": "significantly more important"}, {"measurement": "Irritability vs control group", "setting": "[1]; [4]", "result": "significantly less irritable"}, {"measurement": "Toe pinch reflex vs control group", "setting": "[1]; [4]", "result": "significantly less reactive"}, {"measurement": "Audible vocalization vs control group", "setting": "[1]; [5]", "result": "significantly less vocalization"}, {"measurement": "Finger approach, escapes vs control group", "setting": "[1]; [5]", "result": "significantly less escapes"}, {"measurement": "Interest for an object vs control group", "setting": "[1]; [5]", "result": "significantly more important"}, {"measurement": "Irritability vs control group", "setting": "[1]; [5]", "result": "significantly less irritable"}, {"measurement": "Startles vs control group", "setting": "[1]; [5]", "result": "significantly less startles"}, {"measurement": "Audible vocalization vs control group", "setting": "[1]; [6]", "result": "significantly less vocalization"}, {"measurement": "Body temperature vs control group", "setting": "[1]; [6]", "result": "significantly lower"}, {"measurement": "Interest for an object vs control group", "setting": "[1]; [6]", "result": "significantly higher"}, {"measurement": "Number of squares crossed vs control group", "setting": "[1]; [6]", "result": "significantly more squares"}, {"measurement": "Startles vs control group", "setting": "[1]; [6]", "result": "significantly less startles"}, {"measurement": "Wire manoeuvre vs control group", "setting": "[1]; [6]", "result": "significantly more often"}, {"measurement": "capacity to tolerate stress", "setting": "[1]", "result": "an important effect leading to the capacity to tolerate stress"}, {"measurement": "inhibition of the isoprenylation enzymes", "setting": "isoprenylation enzymes", "result": "only weak inhibitors"}, {"measurement": "tolerability", "setting": "[2]", "result": "well tolerated"}, {"measurement": "compounds (plasma metabolites) present in blood", "setting": "[3]", "result": "at least five compounds"}, {"measurement": "identity of the two major plasma metabolite peaks", "setting": "[3]", "result": "dihydroperillic acid and perillic acid"}]}, {"compound": "C=C(C)[C@@H]1CC=C(CO)CC1", "note": "[Perillic alcohol, (S)-4-Isopropenyl-1-cyclohexenylmethanol]", "values": [{"measurement": "duration of the effect", "setting": "[1]; 10 mg/kg orally", "result": "already decreased after 2 hours"}, {"measurement": "overall effect indicated by the FOB results", "setting": "[1]; 10 mg/kg orally", "result": "an appeasing, relaxing effect, an anti-pain effect and an effect on temper giving a cheerful character"}, {"measurement": "time to response (onset)", "setting": "[1]; 10 mg/kg orally", "result": "less than one hour"}, {"measurement": "aggression (summary)", "setting": "[1]; 10 mg/kg orally", "result": "no aggression"}, {"measurement": "audible vocalization (summary)", "setting": "[1]; 10 mg/kg orally", "result": "very poor"}, {"measurement": "body temperature (summary)", "setting": "[1]; 10 mg/kg orally", "result": "a decrease"}, {"measurement": "escapes after finger approach (summary)", "setting": "[1]; 10 mg/kg orally", "result": "less quickly escapes"}, {"measurement": "interest for an object, curiosity (summary)", "setting": "[1]; 10 mg/kg orally", "result": "an increase"}, {"measurement": "irritability (summary)", "setting": "[1]; 10 mg/kg orally", "result": "no irritability"}, {"measurement": "mictions (summary)", "setting": "[1]; 10 mg/kg orally", "result": "an increase"}, {"measurement": "number of squares crossed (summary)", "setting": "[1]; 10 mg/kg orally", "result": "an increase"}, {"measurement": "pain response (summary)", "setting": "[1]; 10 mg/kg orally", "result": "a high decrease"}, {"measurement": "spontaneous activity (summary)", "setting": "[1]; 10 mg/kg orally", "result": "an increase"}, {"measurement": "startle response (summary)", "setting": "[1]; 10 mg/kg orally", "result": "an important decrease"}, {"measurement": "time before the rat falls (summary)", "setting": "[1]; 10 mg/kg orally", "result": "an increase"}, {"measurement": "toe pinch reflex (summary)", "setting": "[1]; 10 mg/kg orally", "result": "a decrease"}, {"measurement": "wire manoeuvre (summary)", "setting": "[1]; 10 mg/kg orally", "result": "an increase"}, {"measurement": "Audible vocalization vs control group", "setting": "[1]; [4]", "result": "tendancy to emit less vocalization"}, {"measurement": "Interest for an object vs control group", "setting": "[1]; [4]", "result": "tendency to have a more important interest"}, {"measurement": "Irritability vs control group", "setting": "[1]; [4]", "result": "significantly less irritable"}, {"measurement": "Toe pinch reflex vs control group", "setting": "[1]; [4]", "result": "significantly less reactive"}, {"measurement": "Finger approach, escapes vs control group", "setting": "[1]; [5]", "result": "significantly less escapes"}, {"measurement": "Audible vocalization", "setting": "[1]; [7]", "result": "N.S."}, {"measurement": "Interest for an object", "setting": "[1]; [7]", "result": "N.S."}, {"measurement": "Irritability", "setting": "[1]; [7]", "result": "N.S."}, {"measurement": "Startles", "setting": "[1]; [7]", "result": "N.S."}, {"measurement": "Audible vocalization vs control group", "setting": "[1]; [6]", "result": "tendency to emit less vocalization"}, {"measurement": "Body temperature", "setting": "[1]; [8]", "result": "N.S."}, {"measurement": "Interest for an object", "setting": "[1]; [8]", "result": "N.S."}, {"measurement": "Number of squares crossed", "setting": "[1]; [8]", "result": "N.S."}, {"measurement": "Startles", "setting": "[1]; [8]", "result": "N.S."}, {"measurement": "Wire manoeuver", "setting": "[1]; [8]", "result": "N.S."}, {"measurement": "capacity to tolerate stress", "setting": "[1]", "result": "an important effect leading to the capacity to tolerate stress"}, {"measurement": "IC50 on isoprenylation enzymes", "setting": "isoprenylation enzymes", "result": "low mM range"}, {"measurement": "inhibition of the isoprenylation enzymes", "setting": "isoprenylation enzymes", "result": "more potent inhibitors"}]}, {"compound": "C=C(C)[C@@H]1CC=C(C(=O)O)CC1", "note": "[perillic acid]", "values": [{"measurement": "IC50 on isoprenylation enzymes", "setting": "isoprenylation enzymes", "result": "low mM range"}, {"measurement": "inhibition of the isoprenylation enzymes", "setting": "isoprenylation enzymes", "result": "more potent inhibitors"}]}, {"compound": "S-limonene", "values": [{"measurement": "inhibition of the isoprenylation enzymes", "setting": "isoprenylation enzymes", "result": "only weak inhibitors"}]}]}
